Series [1] is described as follows: Taxol loading into worm micelle core (HPLC). The class given is physicochemical. To be noted: confirmed by HPLC. As to the method: In vitro assays. Drug delivery with liposomes entails loading either hydrophilic drugs or nucleic acids into the interior of the assembly (Wagner et al., Proc. Nat'l Acad. Sci. USA 89:7934 (1992)), or hydrophobic drugs into the lipid bilayer (Wenk et al., J. Pharm. Sci. 85:228 (1996)). The worm micelles in this study were loaded with the drug taxol, one of a variety of hydrophobic drugs available for killing tumor cells. Taxol binds to, and toxically stabilizes, microtubules at 1-10 nM (Gloushankova et al., Proc. Nat'l. Acad. Sci. USA 91:8597 (1994)).

For the next series, the system named is microtubules. Conditions: cited from earlier work.

Take `CC(=O)O[C@H]1C(=O)[C@@]2(C)[C@H]([C@H](OC(=O)c3ccccc3)[C@]3(O)C[C@H](OC(=O)[C@H](O)[C@@H](NC(=O)c4ccccc4)c4ccccc4)C(C)=C1C3(C)C)[C@]1(OC(C)=O)CO[C@@H]1C[C@@H]2O` [taxol, paclitaxel]: the “taxol partition into hydrophobic core” value in series [1] is listed as “one molecule of taxol partitions into the hydrophobic core per ten copolymers”. For the same molecule, the “concentration that binds and toxically stabilizes microtubules” value in the series on microtubules is 1 to 10 nM.

The record behind these values is patent US20050180922A1, “Block co-polymer worm micelles and methods of use therefor” (priority 2004, published 2005).
